In patent US20130236481A1, “HETEROCYCLE -ARYL COMPOUNDS FOR INFLAMMATION AND IMMUNE-RELATED USES” (SYNTA PHARMACEUTICALS CORP., priority 2007, published 2013):
Structures can show the parent of a compound that is named as a salt.

Test system: IL-2 production
Assay: Inhibition of IL-2 production in PHA-activated Jurkat cells (ELISA)
Format: cell-based
Settings: Homo sapiens, Jurkat, 20 h, PHA 2.5 μg/mL, IL-2 ELISA
Procedure: Jurkat cells were placed in a 96 well plate (0.5 million cells per well in 1% FBS medium) then a test compound of this invention was added at different concentrations. After 10 minutes, the cells were activated with PHA (final concentration 2.5 μg/mL) and incubated for 20 hours at 37° C. under CO2. The final volume was 200 μL. Following incubation, the cells were centrifuged and the supernatants collected and stored at −70° C. prior to assaying for IL-2 production. A commercial ELISA kit (IL-2 Eli-pair, Diaclone Research, Besancon, France) was used to detect production of IL-2, from which dose response curves were obtained. The IC50 value was calculated as the concentration at which 50% of maximum IL-2 production after stimulation was inhibited versus a non-stimulation control.

Row | SMILES | IC50
1 | Cc1sc(-c2cncn2C)cc1-c1ccc(NC(=O)c2c(F)cccc2F)cc1 [Compound 23, 2,6-difluoro-N-(4-(2-methyl-5-(1-methyl-1H-imidazol-5-yl)thiophen-3-yl)phenyl)benzamide] | 6 nM
2 | Cc1ccncc1-c1cc(-c2ccc(NC(=O)c3c(F)cccc3F)cc2)c(C)s1 [Compound 12, 2,6-difluoro-N-(4-(2-methyl-5-(4-methylpyridin-3-yl)thiophen-3-yl)phenyl)benzamide] | 9 nM
3 | Cc1sc(-c2nccs2)cc1-c1ccc(NC(=O)c2c(F)cccc2F)nc1 [Compound 14, 2,6-difluoro-N-(5-(2-methyl-5-(thiazol-2-yl)thiophen-3-yl)pyridin-2-yl)benzamide] | 8 nM
4 | CCn1cncc1-c1cc(-c2ccc(NC(=O)c3c(F)cccc3F)cc2)c(C)s1 [Compound 25, N-(4-(5-(1-ethyl-1H-imidazol-5-yl)-2-methylthiophen-3-yl)phenyl)-2,6-difluorobenzamide] | 27 nM
5 | Cc1cnccc1C(=O)Nc1ccc(-c2cc(-c3cnco3)sc2C)cn1 [Compound 18, 3-methyl-N-(5-(2-methyl-5-(oxazol-5-yl)thiophen-3-yl)pyridin-2-yl)isonicotinamide] | 17 nM
6 | Cc1sc(-c2nccs2)cc1-c1cnc(NC(=O)c2c(F)cccc2F)cn1 [Compound 15, 2,6-difluoro-N-(5-(2-methyl-5-(thiazol-2-yl)thiophen-3-yl)pyrazin-2-yl)benzamide] | 10 nM
7 | Cc1sc(-c2cnco2)cc1-c1ccc(NC(=O)c2c(F)cccc2F)cn1 [Compound 10, 2,6-difluoro-N-(6-(2-methyl-5-(oxazol-5-yl)thiophen-3-yl)pyridin-3-yl)benzamide] | 31 nM
8 | Cc1cc(-c2nccs2)sc1-c1ccc(NC(=O)c2c(F)cccc2F)cc1 [Compound 2, 2,6-difluoro-N-(4-(3-methyl-5-(thiazol-2-yl)thiophen-2-yl)phenyl)benzamide] | 7 nM
9 | Cc1cc(-c2cccnc2)sc1-c1ccc(NC(=O)c2c(F)cccc2F)cc1 [Compound 6, 2,6-difluoro-N-(4-(3-methyl-5-(pyridin-3-yl)thiophen-2-yl)phenyl)benzamide] | 2 nM
10 | Cc1sc(-c2cnc[nH]2)cc1-c1ccc(NC(=O)c2c(F)cccc2F)cc1 [Compound 11, N-(4-(5-(1H-imidazol-5-yl)-2-methylthiophen-3-yl)phenyl)-2,6-difluorobenzamide] | 16 nM
11 | Cc1sc(-c2cncn2C)cc1-c1ccc(NC(=O)c2c(F)cccc2F)nc1 [Compound 17, 2,6-difluoro-N-(5-(2-methyl-5-(1-methyl-1H-imidazol-5-yl)thiophen-3-yl)pyridin-2-yl)benzamide] | 25 nM
12 | Cc1sc(-c2cnccc2Cl)cc1-c1ccc(NC(=O)c2c(F)cccc2F)cc1 [Compound 19, N-(4-(5-(4-chloropyridin-3-yl)-2-methylthiophen-3-yl)phenyl)-2,6-difluorobenzamide] | 3 nM
13 | COc1ncc(Cl)cc1-c1cc(-c2ccc(NC(=O)c3c(F)cccc3F)cc2)c(C)s1 [Compound 13, N-(4-(5-(5-chloro-2-methoxypyridin-3-yl)-2-methylthiophen-3-yl)phenyl)-2,6-difluorobenzamide] | 73 nM
14 | Cc1sc(-c2cnco2)cc1-c1ccc(NC(=O)c2c(F)cccc2F)nc1 [Compound 5, 2,6-difluoro-N-(5-(2-methyl-5-(oxazol-5-yl)thiophen-3-yl)pyridin-2-yl)benzamide] | 10 nM
15 | COc1ccncc1-c1cc(-c2ccc(NC(=O)c3c(F)cccc3F)cc2)c(C)s1 [Compound 20, 2,6-difluoro-N-(4-(5-(4-methoxypyridin-3-yl)-2-methylthiophen-3-yl)phenyl)benzamide] | 19 nM
16 | Cc1sc(-c2cccnc2)cc1-c1ccc(NC(=O)c2c(F)cccc2F)cc1 [Compound 7, 2,6-difluoro-N-(4-(2-methyl-5-(pyridin-3-yl)thiophen-3-yl)phenyl)benzamide] | 3 nM
17 | Cc1sc(-c2cnco2)cc1-c1cnc(NC(=O)c2c(F)cccc2F)cn1 [Compound 4, 2,6-difluoro-N-(5-(2-methyl-5-(oxazol-5-yl)thiophen-3-yl)pyrazin-2-yl)benzamide] | 15 nM
18 | Cc1cc(-c2ccno2)sc1-c1ccc(NC(=O)c2c(F)cccc2F)cc1 [Compound 1, 2,6-difluoro-N-(4-(5-(isoxazol-5-yl)-3-methylthiophen-2-yl)phenyl)benzamide] | 3 nM
19 | Cc1sc(-c2cnc[nH]2)cc1-c1cnc(NC(=O)c2c(F)cccc2F)cn1 [Compound 22, N-(5-(5-(1H-imidazol-5-yl)-2-methylthiophen-3-yl)pyrazin-2-yl)-2,6-difluorobenzamide] | 152 nM
20 | Cc1sc(-c2cnc[nH]2)cc1-c1ccc(NC(=O)c2c(F)cccc2F)nc1 [Compound 16, N-(5-(5-(1H-imidazol-5-yl)-2-methylthiophen-3-yl)pyridin-2-yl)-2,6-difluorobenzamide] | 50 nM
21 | Cc1cc(-c2cncn2C)sc1-c1ccc(NC(=O)c2c(F)cccc2F)cc1 [Compound 3, 2,6-difluoro-N-(4-(3-methyl-5-(1-methyl-1H-imidazol-5-yl)thiophen-2-yl)phenyl)benzamide] | 8 nM
22 | Cc1sc(-c2nccs2)cc1-c1ccc(NC(=O)c2c(F)cccc2F)cc1 [Compound 8, 2,6-difluoro-N-(4-(2-methyl-5-(thiazol-2-yl)thiophen-3-yl)phenyl)benzamide] | 6 nM
23 | Cc1sc(-c2cncn2C)cc1-c1cnc(NC(=O)c2c(F)cccc2F)cn1 [Compound 21, 2,6-difluoro-N-(5-(2-methyl-5-(1-methyl-1H-imidazol-5-yl)thiophen-3-yl)pyrazin-2-yl)benzamide] | 27 nM
24 | Cc1sc(-c2nnco2)cc1-c1ccc(NC(=O)c2c(F)cccc2F)cc1 [Compound 9, 2,6-difluoro-N-(4-(2-methyl-5-(1,3,4-oxadiazol-2-yl)thiophen-3-yl)phenyl)benzamide] | 9 nM

Same assay, conditions: PHA 2.5 μg/mL, 20 hours, IL-2 ELISA, hydrochloride

Row | SMILES | IC50
25 | Cc1sc(-c2cncn2C)cc1-c1ccc(NC(=O)c2c(F)cccc2F)cc1 [Compound 24, 2,6-difluoro-N-(4-(2-methyl-5-(1-methyl-1H-imidazol-5-yl)thiophen-3-yl)phenyl)benzamide hydrochloride] | 3 nM
